From US7632683B2, “Method, apparatus, reagent kit and reagent for distinguishing erythrocytes in a biological specimen” (Sysmex Corporation, priority 2004, dated 2009)

Tested on: yeast-like fungi (C. glabrata)
Experiment: Flow cytometry of urine specimen spiked with yeast-like fungi: fluorescence stainability of the fungi
Format: cell-based
Settings: average fluorescence signal of yeast-like fungi in human urine without erythrocytes; substance at 1.0 wt % in diluting liquid in place of 2-phenoxyethanol; relative values on scale 0-255
Protocol: A staining liquid was used which was obtained by dissolving a fluorescent dye represented by the following formula in ethylene glycol so that the final concentration in the sample for analysis would be 6 ppm.
In the step S1, the sample preparing section 200 is controlled to execute the preparation of a sample for analysis. The operation of the sample preparing section 200 in the step S1 will be described with reference to FIG. 5. First, the dispensing device 224 sucks 522 μL of a diluting liquid from the sample container 231 of the reagent setting section 222, and then sucks 180 µL of a specimen (human urine) from the specimen container 225 that is set in the specimen setting section 221. The dispensing device 224 then dispenses the sucked diluting liquid and specimen to the reaction vessel 226 that is set in the incubator 223. Next, the dispensing device 224 sucks 18 μL of a staining liquid from the reagent container 227 of the reagent setting section 222, and dispenses the staining liquid to the reaction vessel 226. Thereafter, the incubator 223 stirs the mixture for 10 seconds to stain the diluted specimen while keeping the liquid temperature within the reaction vessel 226 containing the specimen, diluting liquid, and staining liquid to be 35 °C. The sample liquid for analysis thus prepared is sucked by the dispensing device 224, and is supplied to the sample container 233. The sample liquid for analysis supplied to the sample container 233 is let to flow through the flow cell 301 of the detecting section 300.
In the step S2, the detecting section 300 is controlled to detect signals reflecting the characteristics of each particle from the particles in the sample liquid for analysis. The operation of the detecting section 300 in the step S2 will be described with reference to FIG. 6. When the sample liquid is supplied to the sample container 233 as described above, the sample liquid is guided to the nozzle 303 by the operation of pumps and valves (not illustrated). Then, the sample liquid is ejected from the nozzle 303 to the flow cell 301. Simultaneously with this, a sheath liquid is supplied to the flow cell 301 from a sheath liquid container (not illustrated) via a sheath liquid inlet 304. By this, the sample liquid is surrounded by the sheath liquid in the flow cell 301, and is further narrowed down at by the orifice section 302 to flow. By narrowing the flow of the sample liquid, the particles such as erythrocytes and bacteria contained in the sample liquid are arranged in one line to flow through the orifice section 302. A laser beam emitted from the laser light source 306 is condensed by the condenser lens 307 and is radiated to the sample liquid that is flowing through the orifice section 302. The forward scattered light emitted from a particle in the sample liquid irradiated with the laser beam is condensed by the collector lens 309. Then the forward scattered light that has passed through the pinhole 310 is received and subjected to photoelectric conversion by the photodiode 308 to become a pulse-like forward scattered light signal. The fluorescence emitted from the particle in the sample liquid irradiated with the laser beam is condensed by the collector lens 312. Then the fluorescence that has passed through the filter 313 and the pinhole 314 is received and subjected to photoelectric conversion by the photomultiplier tube 311 to become a pulse-like fluorescence signal. The forward scattered light signal and the fluorescence signal are amplified respectively by the amplifiers 315, 316 and are sent to the controlling section 400.
First, the forward scattered light signal and the fluorescence signal detected by the detecting section are input into the signal processing circuit 403.

In order of falling Fluorescence intensity:
1. CC(O)COc1ccccc1 (stereo not shown) [1-phenoxy-2-propanol]  103
2. c1ccc2scnc2c1 [Benzothiazole]  92
3. OCCc1ccccc1 [β-phenethyl alcohol]  84
4. CC(=O)Oc1ccccc1 [Phenyl acetate]  82
5. OCc1ccccc1 [Benzyl alcohol]  73
6. Oc1ccccc1 [Phenol]  55

Same assay, conditions: human urine with erythrocytes plus C. glabrata; diluting liquid with 2-phenoxyethanol 7.5 g/l, pH 7.0 (Example 1) versus without (Example 2)

With `OCCOc1ccccc1` [2-phenoxyethanol] the “Fluorescence intensity of yeast-like fungi compared with erythrocytes (two-dimensional scattergram)” value was “larger fluorescence intensity than the erythrocytes”.
